From patent publication US7820672B2, “Indolylmaleimide derivatives” (Novartis AG, priority 2003, dated 2010) come the findings set out here.

As a reminder, the IC50 is the point on the concentration scale where inhibition reaches its midpoint.

Assay [1] addresses Human recombinant PKCθ (Homo sapiens, UniProt Q04759). Briefly: Protein Kinase C θ assay. The format is biochemical. Here is the method: (§1) The compounds of formula I are tested for their activity on different PKC isoforms according to a published method (D. Geiges et al. Biochem. Pharmacol. 1997; 53:865-875) The assay is performed in a 96-well polypropylene microtiterplate (Costar 3794) that has been previously siliconized with Sigmacote (Sigma SL-2). The reaction mixture (50 μl) contains 10 μl of the relevant PKC isozyme together with 25 μl of the test compound and 15 μl of a mix solution that contains 200 μg/ml protamine sulfate, 10 mM Mg(NO3)2, 10 μM ATP (Boehringer 519987) and 3750 Bq of ^33P-ATP (Hartmann Analytic SFC301, 110 TBq/mmol) in 20 mM Tris-buffer pH 7.4+0.1% BSA. Incubation is performed for 15 min at 32° C. in a microtiterplate shaking incubator (Biolabo Scientific Instruments). Reaction is stopped by adding 10 μl of 0.5 M Na2EDTA, pH 7.4. 50 μl of mixture are pipetted onto a pre-wetted phosphocellulose paper (Whatmann 3698-915) under gentle pressure. Non-incorporated ATP is washed away with 100 μl bi-dist H2O. The paper is washed twice in 0.5% H3PO4 for 15 min followed by 5 min in EtOH. Thereafter the paper is dryed and placed in an omnifilter (Packard 6005219), and overlayed with 10 μl/well of Microscint-O (Packard 6013611) before counting in a Topcount radioactivity counter (Packard). IC50 measurement is performed on a routine basis by incubating a serial dilution of inhibitor at concentrations ranging between 1-1000 μM according to the method described above. IC50 value are calculated from the graph by sigmoidal curve fitting.
Human recombinant PKCθ is used under the assay conditions as described above. In this assay, compounds of formula I inhibit PKC θ with an IC50≦1 μM.

The target in assay [2] is T1, Human recombinant PKCα (Homo sapiens, UniProt P17252).
T1 construct: purchased Oxford Biomedical Research
Briefly: Protein Kinase Cα assay. The format is biochemical. The method, then:
as §1
Human recombinant PKCα was obtained from Oxford Biomedical Research and is used under the assay conditions as described under Section A.1 above. In this assay, compounds of formula I inhibit PKCα with an IC50≦1 μM.

The target of assay [3] is T2, Human recombinant PKCβ1 (Homo sapiens, UniProt P05771).
T2 construct: purchased Oxford Biomedical Research
T2 sequence (P05771 whole entry): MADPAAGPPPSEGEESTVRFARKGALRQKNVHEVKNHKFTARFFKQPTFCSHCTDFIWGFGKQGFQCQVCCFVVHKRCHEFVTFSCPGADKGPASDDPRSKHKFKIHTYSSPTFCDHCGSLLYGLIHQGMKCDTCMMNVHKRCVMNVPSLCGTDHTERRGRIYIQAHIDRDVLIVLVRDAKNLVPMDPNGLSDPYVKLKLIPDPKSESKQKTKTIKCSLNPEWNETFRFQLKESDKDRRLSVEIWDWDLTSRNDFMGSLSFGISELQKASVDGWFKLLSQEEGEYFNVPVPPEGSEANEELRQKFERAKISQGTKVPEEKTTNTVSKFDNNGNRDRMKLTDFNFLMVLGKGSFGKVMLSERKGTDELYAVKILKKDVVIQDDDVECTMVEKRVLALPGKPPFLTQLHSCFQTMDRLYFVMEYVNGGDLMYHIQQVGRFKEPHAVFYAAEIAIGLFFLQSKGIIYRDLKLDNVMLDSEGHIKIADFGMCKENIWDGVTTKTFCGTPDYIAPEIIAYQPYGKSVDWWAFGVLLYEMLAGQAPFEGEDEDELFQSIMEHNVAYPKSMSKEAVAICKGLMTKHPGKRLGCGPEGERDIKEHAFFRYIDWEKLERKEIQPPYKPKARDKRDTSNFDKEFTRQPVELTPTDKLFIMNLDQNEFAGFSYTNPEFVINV
The assay is described as follows: Protein Kinase Cβ1 assay. The assay is classed as biochemical. The method, then: as §1
Human recombinant PKCβ1 was obtained from Oxford Biomedical Research and is used under the assay conditions as described under Section A.1 above. In this assay, compounds of formula I inhibit PKCβ1 with an IC50≦1 μM.

Assay [4] has as its target T3, Human recombinant PKCδ (Homo sapiens, UniProt Q05655).
T3 construct: purchased Oxford Biomedical Research
The assay is described as follows: Protein Kinase Cδ assay. The format is biochemical. Here is the method: as §1, with “IC50 measurement is performed on a routine basis by incubating a serial dilution of inhibitor at concentrations ranging between 1-1000 μM according to the method described above.” left out, “fitting. […]” for “fitting.”

Assay [5] has as its target T4, Human recombinant PKCε (Homo sapiens, UniProt Q02156).
T4 construct: purchased Oxford Biomedical Research
T4 sequence (Q02156 1-737): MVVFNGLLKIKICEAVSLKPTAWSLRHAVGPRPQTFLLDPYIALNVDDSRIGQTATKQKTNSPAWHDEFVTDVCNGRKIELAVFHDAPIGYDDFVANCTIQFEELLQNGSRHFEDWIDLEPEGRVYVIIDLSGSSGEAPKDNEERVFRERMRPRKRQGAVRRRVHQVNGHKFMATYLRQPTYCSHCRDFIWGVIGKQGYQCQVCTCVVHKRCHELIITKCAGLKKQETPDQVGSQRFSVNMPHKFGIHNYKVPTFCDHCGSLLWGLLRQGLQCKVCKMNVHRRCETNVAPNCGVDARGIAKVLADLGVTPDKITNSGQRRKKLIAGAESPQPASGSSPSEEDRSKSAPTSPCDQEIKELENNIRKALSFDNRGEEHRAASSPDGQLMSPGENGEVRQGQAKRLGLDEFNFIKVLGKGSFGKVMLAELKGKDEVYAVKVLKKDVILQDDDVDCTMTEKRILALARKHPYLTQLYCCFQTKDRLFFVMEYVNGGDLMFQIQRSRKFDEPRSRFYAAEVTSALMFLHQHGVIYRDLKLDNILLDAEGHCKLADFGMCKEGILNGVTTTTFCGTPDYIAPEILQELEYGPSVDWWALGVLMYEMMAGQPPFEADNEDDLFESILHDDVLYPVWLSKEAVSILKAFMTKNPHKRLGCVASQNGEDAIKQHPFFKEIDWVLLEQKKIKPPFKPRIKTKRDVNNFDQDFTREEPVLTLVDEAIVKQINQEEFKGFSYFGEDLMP
The assay is described as follows: Protein Kinase Cε assay. The assay is classed as biochemical. Conditions: read-out: IC50 in Protein Kinase Cε assay (sentence prints PKCδ). The method, then:
as §1, with “IC50 measurement is performed on a routine basis by incubating a serial dilution of inhibitor at concentrations ranging between 1-1000 μM according to the method described above.” left out, “fitting. […]” for “fitting.”

In assay [6] the target is T5, Human recombinant PKCη (Homo sapiens, UniProt P24723).
T5 construct: purchased PanVera
T5 sequence (P24723 whole entry): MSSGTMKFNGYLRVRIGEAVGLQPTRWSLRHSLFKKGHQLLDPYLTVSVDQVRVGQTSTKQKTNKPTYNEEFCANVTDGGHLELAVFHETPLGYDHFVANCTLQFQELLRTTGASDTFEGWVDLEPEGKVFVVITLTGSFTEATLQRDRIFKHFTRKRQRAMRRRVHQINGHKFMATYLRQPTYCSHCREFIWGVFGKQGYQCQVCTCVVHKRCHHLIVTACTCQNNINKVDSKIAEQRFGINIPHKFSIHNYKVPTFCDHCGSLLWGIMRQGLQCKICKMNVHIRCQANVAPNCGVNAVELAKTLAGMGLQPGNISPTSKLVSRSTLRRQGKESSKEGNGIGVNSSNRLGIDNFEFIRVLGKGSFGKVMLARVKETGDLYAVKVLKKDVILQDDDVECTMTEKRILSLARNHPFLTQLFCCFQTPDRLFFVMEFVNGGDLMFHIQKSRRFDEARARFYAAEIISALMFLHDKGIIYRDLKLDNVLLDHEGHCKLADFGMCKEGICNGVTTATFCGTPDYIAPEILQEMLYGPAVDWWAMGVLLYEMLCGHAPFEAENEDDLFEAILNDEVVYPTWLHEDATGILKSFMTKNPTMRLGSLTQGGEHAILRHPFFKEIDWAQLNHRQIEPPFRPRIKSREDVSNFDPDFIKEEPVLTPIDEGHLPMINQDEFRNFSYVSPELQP
The assay is described as follows: Protein Kinase Cη assay. The assay is classed as biochemical. The method, then:
as §1, with “IC50 measurement is performed on a routine basis by incubating a serial dilution of inhibitor at concentrations ranging between 1-1000 μM according to the method described above.” left out, “fitting. […]” for “fitting.”

The test system of assay [7] is Jurkat cells transfected with a human interleukin-2 promoter/reporter gene construct. The assay is described as follows: CD28 costimulation assay (IL-2 promoter/luciferase reporter). The assay is classed as cell-based. Conditions: stimulated Jurkat cells, luciferase reporter. The method, then:
The assay is performed with Jurkat cells transfected with a human interleukin-2 promoter/reporter gene construct as described by Baumann G et al. in Transplant Proc. 1992; 24:43-8, the β-galactosidase reporter gene being replaced by the luciferase gene (de Wet J., et al., Mol. Cell Biol. 1987, 7(2), 725-737). Cells are stimulated by solid phase-coupled antibodies or phorbol myristate acetate (PMA) and the Ca^++ ionophore ionomycin as follows. For antibody-mediated stimulation Microlite TM1 microtiter plates (Dynatech) are coated with 3 μg/ml goat anti-mouse IgG Fc antibodies (Jackson) in 55 μl phosphate-buffered saline (PBS) per well for three hours at RT. Plates are blocked after removing the antibodies by incubation with 2% bovine serum albumin (BSA) in PBS (300 μl per well) for 2 hours at RT. After washing three times with 300 μl PBS per well, 10 ng/ml anti-T cell receptor antibodies (WT31, Becton & Dickinson) and 300 ng/ml anti-CD28 antibodies (15E8) in 50 μl 2% BSA/PBS are added as stimulating antibodies and incubated overnight at 4° C. Finally the plates are washed three times with 300 μl PBS per well. Seven three-fold serial dilutions of test compounds in duplicates in assay medium (RPMI 1640/10% fetal calf serum (FCS) containing 50 μM 2-mercaptoethanol, 100 units/ml penicillin and 100 μg/ml streptomycin) are prepared in separate plates, mixed with transfected Jurkat cells (clone K22 290_H23) and incubated for 30 minutes at 37° C. in 5% CO2. […] After incubation for 5.5 hours at 37° C. in 5% CO2, the level of luciferase is determined by bioluminescence measurement. […] Luciferase activity is assessed with a bioluminescence reader (Labsystem, Helsinki, Finland) after automatic addition of 50 μl per well luciferase reaction buffer containing 20 mM Tricine, 1.07 mM (MgCO3)4Mg(OH)2×5H2O, 2.67 mM MgSO4, 0.1 mM EDTA, 33.3 mM DTT, 270 μM coenzyme A, 470 μM luciferin (Chemie Brunschwig AG), 530 μM ATP, pH 7.8. […] The inhibition obtained in the presence of a test compound is calculated as percent inhibition of the high control. […]
(Reporter assays use an easily measured gene product as a stand-in for the process of interest.)

In assay [8] the test system is spleen cells from CBA and BALB/c mice. The assay is described as follows: Allogeneic mixed lymphocyte reaction (MLR). Conditions: Mus musculus, two-way MLR, 3H-thymidine incorporation. The format is cell-based. The method, then:
The two-way MLR is performed according to standard procedures (J. Immunol. Methods, 1973, 2, 279 and Meo T. et al., Immunological Methods, New York, Academic Press, 1979, 227-39). Briefly, spleen cells from CBA and BALB/c mice (1.6×10^5 cells from each strain per well in flat bottom tissue culture microtiter plates, 3.2×10^5 in total) are incubated in RPMI medium containing 10% FCS, 100 U/ml penicillin, 100 μg/ml streptomycin (Gibco BRL, Basel, Switzerland), 50 μM 2-mercaptoethanol (Fluka, Buchs, Switzerland) and serially diluted compounds. Seven three-fold dilution steps in duplicates per test compound are performed. After four days of incubation 1 μCi ^3H-thymidine is added. Cells are harvested after an additional five-hour incubation period, and incorporated ^3H-thymidine is determined according to standard procedures. Background values (low control) of the MLR are the proliferation of BALB/c cells alone. Low controls are subtracted from all values. High controls without any sample are taken as 100% proliferation. Percent inhibition by the samples is calculated, and the concentrations required for 50% inhibition (IC50 values) are determined.
Background: Uptake of a labelled nucleoside into DNA is a usual measure of proliferation.

Assay [9] deals with GSK-3β (Homo sapiens, UniProt P49841). Briefly: Inhibition of GSK-3β. The assay is classed as biochemical. The method, then:
The GSK-3β bidding assay is performed in 50 μl reactions in 96 well polypropylene plate, each reaction containing 20 mM magnesium chloride, 40 μM ATP, 2 mM DTT, 88.5 μM biotinylated and phosphorylated CREB-peptide substrate (biotin-KRREILSRRPS(PO4)YR—OH; Q. M. Wang et al., J. Biol. Chem. 269, 14566-14574, 1994), [γ-^33P]ATP (1 μCi) and 2 μl of the compound to be tested in DMSO (various concentrations). 15 μl of GSK-3β (various concentrations) is added and the mixture is incubated at 30° C. for 1 hour. The reaction is stopped by transferring 25 μl of the mixture to a phosphocellulose plate containing 130 μl of 1.85% phosphoric acid. The free radionucleotides in the membrane are washed off under vacuum with 1.85% phosphoric acid (5 times). After the last wash, the plate is transferred to an adaptor plate and 50 μl of scintillation cocktail (Microscint-20, Packard, cat. # 20-133) is added to each well and the amount of radioactivity is counted in a top counter. Compounds of formula I are active in this assay.

Assay [10] has as its system lymph node enlargement. Briefly: Graft v. host model. The assay is classed as in vivo, rat. The settings on record: days 0-3, lymph nodes removed day 7. The method, then: Spleen cells (2×10^7) from Wistar/F rats are injected subcutaneously into the right hind footpad of (Wistar/F×Fischer 344)F1 hybrid rats. The left footpad is left untreated. The animals are treated with the test compounds on 4 consecutive days (0-3). The popliteal lymph nodes are removed on day 7, and the weight differences between two corresponding lymph nodes are determined. The results are expressed as the inhibition of lymph node enlargement (given in percent) comparing the lymph node weight differences in the experimental groups to the weight difference between the corresponding lymph nodes from a group of animals left untreated with a test compound. In this assay, an inhibition of 100% is obtained with compound of Example 1 or 10 when administered at a dose of 30 or 10 mg/kg bid, respectively.

Chain of Human recombinant PKCθ (Q04759 whole entry, canonical isoform): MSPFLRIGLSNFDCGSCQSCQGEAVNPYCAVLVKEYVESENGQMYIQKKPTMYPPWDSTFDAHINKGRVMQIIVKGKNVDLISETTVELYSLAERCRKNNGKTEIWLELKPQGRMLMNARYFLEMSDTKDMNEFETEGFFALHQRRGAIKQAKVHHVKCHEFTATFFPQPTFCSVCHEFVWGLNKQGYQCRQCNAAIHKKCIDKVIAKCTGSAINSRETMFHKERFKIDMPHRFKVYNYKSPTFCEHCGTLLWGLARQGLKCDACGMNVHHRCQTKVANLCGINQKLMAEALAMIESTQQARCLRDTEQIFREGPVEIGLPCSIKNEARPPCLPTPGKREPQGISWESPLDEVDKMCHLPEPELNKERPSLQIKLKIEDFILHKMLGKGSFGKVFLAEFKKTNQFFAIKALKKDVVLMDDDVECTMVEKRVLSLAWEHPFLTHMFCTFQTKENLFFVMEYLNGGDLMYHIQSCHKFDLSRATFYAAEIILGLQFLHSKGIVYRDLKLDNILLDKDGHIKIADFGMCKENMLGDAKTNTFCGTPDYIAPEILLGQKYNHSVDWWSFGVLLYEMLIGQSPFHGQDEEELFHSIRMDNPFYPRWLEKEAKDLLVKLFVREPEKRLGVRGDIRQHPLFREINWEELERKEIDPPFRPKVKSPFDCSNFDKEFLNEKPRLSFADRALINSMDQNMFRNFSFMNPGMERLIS
Chain of GSK-3β (P49841 whole entry, species assumed): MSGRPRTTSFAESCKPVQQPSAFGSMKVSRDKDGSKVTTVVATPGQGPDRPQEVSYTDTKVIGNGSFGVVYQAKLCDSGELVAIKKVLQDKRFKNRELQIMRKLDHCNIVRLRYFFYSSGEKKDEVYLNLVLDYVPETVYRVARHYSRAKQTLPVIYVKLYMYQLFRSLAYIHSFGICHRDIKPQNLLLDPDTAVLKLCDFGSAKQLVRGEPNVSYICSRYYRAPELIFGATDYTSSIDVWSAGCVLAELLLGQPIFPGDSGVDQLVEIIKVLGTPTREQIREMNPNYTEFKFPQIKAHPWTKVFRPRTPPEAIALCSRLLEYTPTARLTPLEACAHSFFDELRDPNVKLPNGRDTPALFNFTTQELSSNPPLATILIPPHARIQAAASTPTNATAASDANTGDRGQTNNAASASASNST
T3 sequence (Q05655 whole entry): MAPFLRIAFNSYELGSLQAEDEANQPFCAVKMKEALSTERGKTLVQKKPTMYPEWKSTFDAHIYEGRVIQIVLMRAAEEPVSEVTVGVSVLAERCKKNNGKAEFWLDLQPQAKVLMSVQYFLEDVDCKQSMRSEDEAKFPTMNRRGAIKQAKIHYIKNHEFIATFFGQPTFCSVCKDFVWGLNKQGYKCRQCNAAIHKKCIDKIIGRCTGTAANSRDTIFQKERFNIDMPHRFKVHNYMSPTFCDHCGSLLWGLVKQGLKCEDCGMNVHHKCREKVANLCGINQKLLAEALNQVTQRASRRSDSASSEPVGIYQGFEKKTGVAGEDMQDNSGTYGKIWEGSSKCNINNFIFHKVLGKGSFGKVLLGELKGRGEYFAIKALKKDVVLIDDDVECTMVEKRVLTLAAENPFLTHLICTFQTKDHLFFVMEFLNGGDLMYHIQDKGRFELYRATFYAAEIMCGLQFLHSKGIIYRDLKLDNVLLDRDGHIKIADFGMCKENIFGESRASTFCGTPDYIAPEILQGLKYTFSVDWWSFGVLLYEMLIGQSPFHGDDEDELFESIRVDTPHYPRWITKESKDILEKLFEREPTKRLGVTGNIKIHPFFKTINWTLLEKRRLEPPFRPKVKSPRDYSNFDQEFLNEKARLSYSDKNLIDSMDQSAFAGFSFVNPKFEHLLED

For `CN1CCN(c2ccc(C(F)(F)F)c(C3=C(c4c[nH]c5ccccc45)C(=O)NC3=O)n2)CC1` [Example 1, 3-(1H-Indol-3-yl)-4-[6-(4-methyl-piperazin-1-yl)-3-tifluoromethyl-pyridin-2-yl]-pyrrole-2,5-dione], the half-maximal inhibitory concentration (IC50) stood at 5.4 nM in [1]; 2.9 nM in assay [2]; 5.9 nM in [3]; 21 nM in assay [4]; 14.7 nM in assay [5]; 15.3 nM in assay [6]. Besides, the IC50 in [7] was found to be 13 nM; in assay [8] it was 28.8 nM; in [9], 18 nM. Besides, the “inhibition of lymph node enlargement” value in [10] (30 mg/kg bid) came to 100%.
In the case of `CN1CCN(c2ccc(Cl)c(C3=C(c4c[nH]c5ccccc45)C(=O)NC3=O)n2)CC1` [Example 10], in assay [1], the 50% inhibitory concentration (IC50) turned out to be 5.8 nM. In addition, the “inhibition of lymph node enlargement” value in assay [10] (10 mg/kg bid) turned out to be 100%.
On to `CN(C)Cc1cc2c(C3=C(c4cn(C)c5ccccc45)C(=O)NC3=O)cccc2[nH]1` [Example 39], for which the IC50 turned out to be 6.3 nM in [2], 13.2 nM in assay [3], 46.7 nM in assay [7] and 285 nM in assay [8].
Regarding `Cc1cccc2c(C3=C(c4c(Cl)ccc5[nH]c(CN(C)C)cc45)C(=O)NC3=O)c[nH]c12` [Example 41], the 50% inhibitory concentration (IC50) was found to be 9.3 nM in assay [1]; 7.5 nM in assay [2]; 14.9 nM in [3]; 29.5 nM in [4]; 7.6 nM in [5]; 15 nM in assay [6]. Also, the values for the IC50 in assay [7], in [8] and in assay [9] were 28.3 nM, 32.5 nM and 25 nM, respectively.
